Experimental data taken from article PMC4936186 (Journal of medicinal chemistry, 2015).
Starred links: 1 amine or outer side, 2 acyl side, 3 side chain; linkers in the order of their positions; H or OH if unused. Positions of bridges follow the written chain, without caps; N, C: chain ends. Non-standard residues stand in square brackets, D forms with d. Residues, ends and D or L forms follow the SMILES beside them. X1 = O=C([C@@H]1C[C@H](n2cc(C3=CC=C[CH]3[Fe][CH]3C=CC=C3)nn2)CN1[*:1])[*:2]

Columns and labels:
HIV-1 gp120 = details: for Activity in SPR competition binding to gp120 (in words): dual receptor site (sCD4 and 17b) inhibition
trypsin = details: 37 °C, 5-hour incubation

| Compound | Enhancement of activity of macrocycle 7 vs 2 (HIV-1 gp120; SPR, shorter green linker (Asp instead of Glu)) | Stability to trypsin (in words) (trypsin) | Stability to chymotrypsin (in words) (chymotrypsin; 37 °C, 5-hour incubation) | Stability to chymotrypsin (in words), 30 min (chymotrypsin; 37 °C, 30 minute incubation) | Intactness after chymotrypsin digestion (in words), 40 h (chymotrypsin; 40 h incubation, HPLC and ESI-MS) | Activity in SPR competition binding to gp120 (in words) (HIV-1 gp120) |
| --- | --- | --- | --- | --- | --- | --- |
| CC[C@H](C)[C@@H]1NC(=O)[C@H](CC(N)=O)NC(=O)[C@@H](N)CC(=O)NCCCC[C@@H](C(N)=O)NC(=O)[C@H](Cc2c[nH]c3ccccc23)NC(=O)[C@@H]2C[C@H](n3cc(CCc4ccccc4)nn3)CN2C1=O [Compound 7] | almost two-fold enhanced activity | completely resistant | completely resistant | almost unchanged | remained intact |  |
| CC[C@H](C)[C@H](N)C(=O)N[C@H]1CCC(=O)NCCCC[C@@H](C(N)=O)NC(=O)[C@H](Cc2c[nH]c3ccccc23)NC(=O)[C@@H]2C[C@H](n3cc(C4=CC=C[CH]4[Fe][CH]4C=CC=C4)nn3)CN2C(=O)[C@H]([C@@H](C)CC)NC(=O)[C@H](CC(N)=O)NC1=O (stereo partly shown) [Compound 4] (H-IENI[X1]WK-NH2; lactam 2-7; N-terminus and C-terminus assumed) |  |  |  |  |  | enhanced dual receptor site antagonizing activities compared to their non-ferrocene analogues |
| CC[C@H](C)[C@@H]1NC(=O)[C@H](CC(N)=O)NC(=O)[C@@H](N)CC(=O)NCCCC[C@@H](C(N)=O)NC(=O)[C@H](Cc2c[nH]c3ccccc23)NC(=O)[C@@H]2C[C@H](n3cc(C4=CC=C[CH]4[Fe][CH]4C=CC=C4)nn3)CN2C1=O (stereo partly shown) [Compound 9] (H-DNI[X1]WK-NH2; lactam 1-6; C-terminus assumed) |  |  |  |  |  | enhanced dual receptor site antagonizing activities compared to their non-ferrocene analogues |
